Experimental data taken from patent US12606561B2, “Substituted pyrazolo[1,5-a][1,3,5]triazines as CDK inhibitors” (QURIENT CO., LTD., priority 2018, dated 2026).

Tests used:
[1] = molecular target: T1, CDK1/Cyclin B (Homo sapiens, UniProt P06493); assay: Enzymatic assay for CDK1 (LANCE Ultra kinase assay, FRET based); format: biochemical; conditions: ATP at Km; read-out: CDK1 enzymatic activity IC50
T1 construct: purchased Invitrogen PR4768C
In short: (§1)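 Purified CDK7/Cyclin H/MNAT1 or CDK1/Cyclin B complexes were tested for inhibition at Km ATP. Phosphorylation of a ULight-labelled peptide was detected by FRET with a Europium anti-phospho antibody (LANCE Ultra).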

[2] = molecular target: T2, CDK2/Cyclin A (Homo sapiens, UniProt P24941); assay: Enzymatic assay for CDK2 (LANCE Ultra kinase assay, FRET based); format: biochemical; conditions: ATP at Km
T2 construct: purchased Invitrogen PV6290
In short: (§2)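 Compounds tested as 8 doses in 4-fold steps against CDK2/Cyclin A ([…]) or CDK5/p25 ([…]), with ATP at its Km and 68 nM ULight-MBP substrate. After 60 min at 23° C., EDTA plus Eu-labelled anti-phospho-MBP added; TR-FRET (615/665 nm) read after another 60 min.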

[3] = molecular target: T3, CDK5/p25 (Homo sapiens, UniProt Q00535); assay: Enzymatic assay for CDK5 (LANCE Ultra kinase assay, FRET based); format: biochemical; conditions: ATP at Km
T3 construct: purchased Invitrogen PR8543B
T3 sequence (Q00535 whole entry): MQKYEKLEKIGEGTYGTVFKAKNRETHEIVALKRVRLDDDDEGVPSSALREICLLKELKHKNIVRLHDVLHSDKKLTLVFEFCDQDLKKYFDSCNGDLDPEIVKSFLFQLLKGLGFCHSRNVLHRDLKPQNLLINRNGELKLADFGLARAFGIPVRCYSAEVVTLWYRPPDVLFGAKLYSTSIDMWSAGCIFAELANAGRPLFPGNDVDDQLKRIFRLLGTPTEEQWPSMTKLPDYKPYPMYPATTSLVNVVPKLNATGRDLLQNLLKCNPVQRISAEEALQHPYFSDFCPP
T3 sequence (Q15078 99-307 partner limits assumed): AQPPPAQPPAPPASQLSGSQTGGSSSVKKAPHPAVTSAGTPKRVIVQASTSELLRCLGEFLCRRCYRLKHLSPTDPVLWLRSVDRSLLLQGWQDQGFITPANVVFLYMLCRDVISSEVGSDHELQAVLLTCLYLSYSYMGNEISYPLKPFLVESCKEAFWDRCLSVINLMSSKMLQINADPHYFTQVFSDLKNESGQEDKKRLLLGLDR
In short: as §2

[4] = molecular target: T4, CDK7/Cyclin H/MNAT1 (Homo sapiens, UniProt P50613); assay: Enzymatic assay for CDK7 (LANCE Ultra kinase assay, FRET based); format: biochemical; conditions: for IC50: ATP at Km
T4 construct: purchased Invitrogen PR6749B
T4 sequence (P50613 whole entry): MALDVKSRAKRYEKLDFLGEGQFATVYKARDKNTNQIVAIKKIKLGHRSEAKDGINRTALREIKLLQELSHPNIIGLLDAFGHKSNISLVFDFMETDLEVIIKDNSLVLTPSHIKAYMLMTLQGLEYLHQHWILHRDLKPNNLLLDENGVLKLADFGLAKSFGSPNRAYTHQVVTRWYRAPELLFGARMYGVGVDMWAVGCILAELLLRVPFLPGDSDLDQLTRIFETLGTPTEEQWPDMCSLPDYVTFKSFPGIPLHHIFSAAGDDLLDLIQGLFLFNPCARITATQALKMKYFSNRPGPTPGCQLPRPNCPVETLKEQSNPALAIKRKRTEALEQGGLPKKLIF
T4 sequence (P51946 whole entry partner): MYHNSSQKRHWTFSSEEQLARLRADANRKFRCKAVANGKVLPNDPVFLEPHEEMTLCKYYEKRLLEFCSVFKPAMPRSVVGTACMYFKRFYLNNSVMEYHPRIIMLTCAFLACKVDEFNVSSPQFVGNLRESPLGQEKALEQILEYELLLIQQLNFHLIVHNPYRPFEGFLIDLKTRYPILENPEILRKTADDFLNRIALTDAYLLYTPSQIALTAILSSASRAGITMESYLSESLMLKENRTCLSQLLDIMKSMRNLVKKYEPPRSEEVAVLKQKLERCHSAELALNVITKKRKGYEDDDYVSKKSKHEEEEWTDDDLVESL
T4 sequence (P51948 whole entry partner): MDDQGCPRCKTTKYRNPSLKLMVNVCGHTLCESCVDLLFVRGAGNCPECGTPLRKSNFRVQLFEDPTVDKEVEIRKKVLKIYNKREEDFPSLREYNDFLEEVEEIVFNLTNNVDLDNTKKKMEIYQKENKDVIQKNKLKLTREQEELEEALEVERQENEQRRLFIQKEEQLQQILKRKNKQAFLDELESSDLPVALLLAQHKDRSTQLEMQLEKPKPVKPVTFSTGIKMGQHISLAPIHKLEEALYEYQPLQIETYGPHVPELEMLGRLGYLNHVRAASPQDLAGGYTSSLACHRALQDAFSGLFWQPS
In short: as §1

[5] = tested on: A2780; assay: A2780 viability assay (CellTiter-Glo, 72 hours); format: cell-based; conditions: Homo sapiens; A2780 cells
In short: (§3)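 CellTiter-Glo luminescence measured viability after 72 h of compound exposure (0.0015–10 uM; DMSO below 0.1%) at 37 °C, 5% CO2, run in duplicate. Dosing began 24 h post-seeding in RPMI-1640/10% FBS at 1×10^4 (MV4-11), 5×10^3 (OVCAR-3) or 1×10^3 (A2780) cells/well.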

[6] = tested on: OVCAR-3; assay: OVCAR-3 viability assay (CellTiter-Glo, 72 hours); format: cell-based; conditions: Homo sapiens; OVCAR-3 cells
In short: as §3

T1 sequence (P06493 whole entry): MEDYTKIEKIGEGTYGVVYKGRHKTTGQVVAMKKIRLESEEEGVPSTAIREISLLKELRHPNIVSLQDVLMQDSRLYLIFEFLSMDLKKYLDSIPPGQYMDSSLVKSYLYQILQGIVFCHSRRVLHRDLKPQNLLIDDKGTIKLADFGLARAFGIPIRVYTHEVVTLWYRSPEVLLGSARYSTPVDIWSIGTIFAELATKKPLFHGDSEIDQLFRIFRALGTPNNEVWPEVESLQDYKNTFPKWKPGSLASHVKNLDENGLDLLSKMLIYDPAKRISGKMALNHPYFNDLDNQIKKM
T1 sequence (P14635 whole entry partner): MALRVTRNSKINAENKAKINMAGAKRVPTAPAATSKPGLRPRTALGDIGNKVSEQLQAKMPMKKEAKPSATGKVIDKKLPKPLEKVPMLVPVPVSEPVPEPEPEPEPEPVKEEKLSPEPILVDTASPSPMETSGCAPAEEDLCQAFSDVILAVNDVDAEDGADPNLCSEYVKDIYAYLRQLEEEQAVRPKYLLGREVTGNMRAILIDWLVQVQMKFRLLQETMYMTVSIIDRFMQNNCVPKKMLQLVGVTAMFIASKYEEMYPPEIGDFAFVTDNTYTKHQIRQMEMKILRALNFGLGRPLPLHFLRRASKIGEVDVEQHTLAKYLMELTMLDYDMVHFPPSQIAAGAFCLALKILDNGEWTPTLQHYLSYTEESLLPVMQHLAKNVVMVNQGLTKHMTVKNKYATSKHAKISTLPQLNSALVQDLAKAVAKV

C=C(F)C(=O)Nc1ccc2c(-c3ccccc3CNc3cc(NC4CCC(OC)CC4)nc4c(C(C)C)cnn34)nccc2c1 (stereo not drawn) [Compound 81]
IC50 [1]: > 1 µM | IC50 [2]: > 1 µM | IC50 [3]: > 1 µM | IC50 [4]: 0.1 to 1 µM | CDK1/CDK7: Selectivity of CDK7 inhibition over CDK1 inhibition [4]: B (B indicates 50 < [fold] ≤ 500) | CDK2/CDK7: Selectivity of CDK7 inhibition over CDK2 inhibition [4]: B (B indicates 50 < [fold] ≤ 500) | CDK5/CDK7: Selectivity of CDK7 inhibition over CDK5 inhibition [4]: B (B indicates 50 < [fold] ≤ 500) | IC50 [5]: < 1 µM | IC50 [6]: < 1 µM

C=CC(=O)Nc1cccc2ccc(-c3cccc(C)c3CNc3nc(N[C@H]4CC[C@H](OC)CC4)nc4c(C(C)C)cnn34)nc12 [Compound 112]
IC50 [1]: > 1 µM | IC50 [2]: > 1 µM | IC50 [3]: > 1 µM | IC50 [4]: 0.1 to 1 µM | CDK1/CDK7: Selectivity of CDK7 inhibition over CDK1 inhibition [4]: B (B indicates 50 < [fold] ≤ 500) | CDK2/CDK7: Selectivity of CDK7 inhibition over CDK2 inhibition [4]: B (B indicates 50 < [fold] ≤ 500) | CDK5/CDK7: Selectivity of CDK7 inhibition over CDK5 inhibition [4]: B (B indicates 50 < [fold] ≤ 500) | IC50 [5]: < 1 µM | IC50 [6]: < 1 µM

C=C(F)C(=O)Nc1ccc2c(-c3ccccc3CNc3nc(NCC4CCNCC4O)nc4c(C(C)C)cnn34)nccc2c1 (stereo not drawn) [Compound 160]
IC50 [1]: > 1 µM | IC50 [2]: > 1 µM | IC50 [3]: > 1 µM | IC50 [4]: < 0.1 µM | CDK1/CDK7: Selectivity of CDK7 inhibition over CDK1 inhibition [4]: A (A indicates [fold] > 500) | CDK2/CDK7: Selectivity of CDK7 inhibition over CDK2 inhibition [4]: A (A indicates [fold] > 500) | CDK5/CDK7: Selectivity of CDK7 inhibition over CDK5 inhibition [4]: A (A indicates [fold] > 500) | IC50 [5]: < 1 µM | IC50 [6]: < 1 µM

C=C(F)C(=O)Nc1ccc2c(-c3ccccc3CNc3nc(N4CCC(OC)CC4)nc4c(C(C)C)cnn34)nccc2c1 [Compound 88]
IC50 [1]: > 1 µM | IC50 [2]: > 1 µM | IC50 [3]: > 1 µM | IC50 [4]: 0.1 to 1 µM | CDK1/CDK7: Selectivity of CDK7 inhibition over CDK1 inhibition [4]: B (B indicates 50 < [fold] ≤ 500) | CDK2/CDK7: Selectivity of CDK7 inhibition over CDK2 inhibition [4]: B (B indicates 50 < [fold] ≤ 500) | CDK5/CDK7: Selectivity of CDK7 inhibition over CDK5 inhibition [4]: B (B indicates 50 < [fold] ≤ 500) | IC50 [5]: < 1 µM | IC50 [6]: < 1 µM

CC(C)c1cnn2c(NCc3ccccc3-c3nccc4cc(NC(=O)/C=C/CN(C)C)ccc34)nc(N3C[C@H]4CC[C@@H](C3)O4)nc12 [Compound 102]
IC50 [1]: > 1 µM | IC50 [2]: > 1 µM | IC50 [3]: > 1 µM | IC50 [4]: 0.1 to 1 µM | CDK1/CDK7: Selectivity of CDK7 inhibition over CDK1 inhibition [4]: B (B indicates 50 < [fold] ≤ 500) | CDK2/CDK7: Selectivity of CDK7 inhibition over CDK2 inhibition [4]: B (B indicates 50 < [fold] ≤ 500) | CDK5/CDK7: Selectivity of CDK7 inhibition over CDK5 inhibition [4]: B (B indicates 50 < [fold] ≤ 500) | IC50 [5]: < 1 µM | IC50 [6]: < 1 µM

C=CC(=O)Nc1ccc2c(-c3ccccc3CNc3nc(N4C5CCC4CC(O)C5)nc4c(C(C)C)cnn34)nccc2c1 (stereo not drawn) [Compound 114]
IC50 [1]: > 1 µM | IC50 [2]: > 1 µM | IC50 [3]: > 1 µM | IC50 [4]: < 0.1 µM | CDK1/CDK7: Selectivity of CDK7 inhibition over CDK1 inhibition [4]: A (A indicates [fold] > 500) | CDK2/CDK7: Selectivity of CDK7 inhibition over CDK2 inhibition [4]: A (A indicates [fold] > 500) | CDK5/CDK7: Selectivity of CDK7 inhibition over CDK5 inhibition [4]: A (A indicates [fold] > 500) | IC50 [5]: 1 to 10 µM | IC50 [6]: < 1 µM

C=C(F)C(=O)Nc1ccc2c(-c3ccccc3CNc3nc(NC[C@@H]4CCNC[C@H]4O)nc4c(C(C)C)cnn34)nccc2c1 [Compound 157]
IC50 [1]: > 1 µM | IC50 [2]: > 1 µM | IC50 [3]: > 1 µM | IC50 [4]: < 0.1 µM | CDK1/CDK7: Selectivity of CDK7 inhibition over CDK1 inhibition [4]: B (B indicates 50 < [fold] ≤ 500) | CDK2/CDK7: Selectivity of CDK7 inhibition over CDK2 inhibition [4]: B (B indicates 50 < [fold] ≤ 500) | CDK5/CDK7: Selectivity of CDK7 inhibition over CDK5 inhibition [4]: B (B indicates 50 < [fold] ≤ 500) | IC50 [5]: < 1 µM | IC50 [6]: 1 to 10 µM

C=C(F)C(=O)Nc1ccc2c(-c3ccccc3CNc3cc(N4CCC(OC)CC4)nc4c(C(C)C)cnn34)nccc2c1 [Compound 91]
IC50 [1]: > 1 µM | IC50 [2]: > 1 µM | IC50 [3]: > 1 µM | IC50 [4]: 0.1 to 1 µM | CDK1/CDK7: Selectivity of CDK7 inhibition over CDK1 inhibition [4]: B (B indicates 50 < [fold] ≤ 500) | CDK2/CDK7: Selectivity of CDK7 inhibition over CDK2 inhibition [4]: B (B indicates 50 < [fold] ≤ 500) | CDK5/CDK7: Selectivity of CDK7 inhibition over CDK5 inhibition [4]: B (B indicates 50 < [fold] ≤ 500) | IC50 [5]: < 1 µM | IC50 [6]: < 1 µM

C=C(F)C(=O)Nc1ccc2c(-c3ccccc3CNc3nc(N[C@H]4CCCNC4)nc4c(C(C)C)cnn34)nccc2c1 [Compound 161]
IC50 [1]: > 1 µM | IC50 [2]: > 1 µM | IC50 [3]: > 1 µM | IC50 [4]: < 0.1 µM | CDK1/CDK7: Selectivity of CDK7 inhibition over CDK1 inhibition [4]: A (A indicates [fold] > 500) | CDK2/CDK7: Selectivity of CDK7 inhibition over CDK2 inhibition [4]: A (A indicates [fold] > 500) | CDK5/CDK7: Selectivity of CDK7 inhibition over CDK5 inhibition [4]: A (A indicates [fold] > 500) | IC50 [5]: < 1 µM | IC50 [6]: < 1 µM

C=C(F)C(=O)Nc1ccc2c(-c3ccccc3CNc3nc(N4CO[C@H]5CN(C)CC[C@@H]5C4)nc4c(C(C)C)cnn34)nccc2c1 [Compound 165]
IC50 [1]: > 1 µM | IC50 [2]: > 1 µM | IC50 [3]: > 1 µM | IC50 [4]: 0.1 to 1 µM | CDK1/CDK7: Selectivity of CDK7 inhibition over CDK1 inhibition [4]: B (B indicates 50 < [fold] ≤ 500) | CDK2/CDK7: Selectivity of CDK7 inhibition over CDK2 inhibition [4]: B (B indicates 50 < [fold] ≤ 500) | CDK5/CDK7: Selectivity of CDK7 inhibition over CDK5 inhibition [4]: B (B indicates 50 < [fold] ≤ 500) | IC50 [5]: < 1 µM | IC50 [6]: < 1 µM

C=CC(=O)Nc1ccc2c(-c3ccccc3CNc3nc(N[C@H]4CC[C@H](OC)CC4)nc4c(C(C)C)cnn34)nccc2c1 [Compound 95]
IC50 [1]: > 1 µM | IC50 [2]: > 1 µM | IC50 [3]: > 1 µM | IC50 [4]: < 0.1 µM | CDK1/CDK7: Selectivity of CDK7 inhibition over CDK1 inhibition [4]: A (A indicates [fold] > 500) | CDK2/CDK7: Selectivity of CDK7 inhibition over CDK2 inhibition [4]: A (A indicates [fold] > 500) | CDK5/CDK7: Selectivity of CDK7 inhibition over CDK5 inhibition [4]: A (A indicates [fold] > 500) | IC50 [5]: < 1 µM | IC50 [6]: < 1 µM

C=CC(=O)Nc1ccc2c(-c3ccccc3CNc3cc(N4CCC5(CC4)OCCO5)nc4c(C(C)C)cnn34)nccc2c1 [Compound 118]
IC50 [1]: > 1 µM | IC50 [2]: > 1 µM | IC50 [3]: > 1 µM | IC50 [4]: < 0.1 µM | CDK1/CDK7: Selectivity of CDK7 inhibition over CDK1 inhibition [4]: A (A indicates [fold] > 500) | CDK2/CDK7: Selectivity of CDK7 inhibition over CDK2 inhibition [4]: A (A indicates [fold] > 500) | CDK5/CDK7: Selectivity of CDK7 inhibition over CDK5 inhibition [4]: A (A indicates [fold] > 500) | IC50 [5]: < 1 µM | IC50 [6]: < 1 µM
